Experimental findings from patent US11072611B2, “Compounds and pharmaceutical compositions thereof for the treatment of inflammatory disorders” (Galapagos NV, priority 2013, dated 2021) are described below.

Bounds are passed on as bounds.

Broadly, the IC50 is the concentration at which inhibition is half-maximal.

This assay relates to LPA 18:2. As to the kind of experiment: Rat whole blood (plasma) LPA assay. It counts as biochemical. The note with it: 2 h at 37° C., LPA 18:2 by LC-MS/MS. The protocol: Whole blood is collected from rats or mouse by exsanguinations on sodium heparin tube, then after centrifugation at 3000 rpm for 15 min at 4° C., plasma is stored at −80° C. Compounds are diluted in DMSO in concentration dependent manner then 0.5 μL are dispensed into 96-well plate placed in ice. Plasma is defrosted on ice then 49.5 μL of plasma are added into the well containing 0.5 μL of compound (1% DMSO final). Plates are covered with a lid in polypropylene and incubated at +37° C., 5% CO2, for 2 h under gentle shaking (except controls which are stored at −20° C.).
At the end of the incubation, controls are defrosted in ice and transferred in the incubated plates for LC-MS/MS analysis with a non GLP-validated method. For the analysis, plasma proteins from a 10 μL incubated plates are precipitated with an excess of methanol containing the internal standard, LPA 17:0. After centrifugation, the corresponding supernatant is injected on a C18 column. Analytes are eluted out of the column under isocratic conditions. An API5500 QTRAP mass spectrometer (ABSciex™) is used for the detection of LPA 18:2. No calibration curve is prepared for LPA 18:2, however relative quantities are evaluated based on the peak area.
Turning to `CCc1nc2ccc(C3CCN(CC(=O)N4CC(O)C4)CC3)cn2c1N(C)c1nc(-c2ccc(F)cc2)c(C#N)s1` [Compound 141, 2-((2-ethyl-6-(1-(2-(3-hydroxyazetidin-1-yl)-2-oxoethyl)piperidin-4-yl)imidazo[1,2-a]pyridin-3-yl)(methyl)amino)-4-(4-fluorophenyl)thiazole-5-carbonitrile], the IC50 is 0.01 to 100 nM. In the case of `CCc1nc2ccc(C3CCN(CC(=O)N4CC[C@@H](O)C4)CC3)cn2c1N(C)c1nc(-c2ccc(F)cc2)c(C#N)s1` [Compound 142, (R)-2-((2-ethyl-6-(1-(2-(3-hydroxypyrrolidin-1-yl)-2-oxoethyl)piperidin-4-yl)imidazo[1,2-a]pyridin-3-yl)(methyl)amino)-4-(4-fluorophenyl)thiazole-5-carbonitrile] it was 0.01 to 100 nM; in that of `CCc1nc2ccc(C3CCN(CC(=O)N4CC[C@H](O)C4)CC3)cn2c1N(C)c1nc(-c2ccc(F)cc2)c(C#N)s1` [Compound 143, (S)-2-((2-ethyl-6-(1-(2-(3-hydroxypyrrolidin-1-yl)-2-oxoethyl)piperidin-4-yl)imidazo[1,2-a]pyridin-3-yl)(methyl)amino)-4-(4-fluorophenyl)thiazole-5-carbonitrile], 0.01 to 100 nM; in that of `CCc1nc2ccc(C3CCN(CC(=O)N4CC(CO)C4)CC3)cn2c1N(C)c1nc(-c2ccc(F)cc2)c(C#N)s1` [Compound 144, 2-((2-ethyl-6-(1-(2-(3-(hydroxymethyl)azetidin-1-yl)-2-oxoethyl)piperidin-4-yl)imidazo[1,2-a]pyridin-3-yl)(methyl)amino)-4-(4-fluorophenyl)thiazole-5-carbonitrile], 0.01 to 100 nM. Under `CCc1nc2ccc(C3CCN(CC(=O)N(C)C)CC3)cn2c1N(C)c1nc(-c2ccc(F)cc2)c(C#N)s1` [Compound 145, 2-(4-(3-((5-cyano-4-(4-fluorophenyl)thiazol-2-yl)(methyl)amino)-2-ethylimidazo[1,2-a]pyridin-6-yl)piperidin-1-yl)-N,N-dimethylacetamide] stands 0.01 to 100 nM; under `CCc1nc2ccc(C3CCN(S(=O)(=O)CCCN(C)C)CC3)cn2c1N(C)c1nc(-c2ccc(F)cc2)c(CO)s1` [Compound 149, (2-((6-(1-(3-(dimethylamino)propylsulfonyl)piperidin-4-yl)-2-ethylimidazo[1,2-a]pyridin-3-yl)(methyl)amino)-4-(4-fluorophenyl)thiazol-5-yl)], greater than 1000 nM; under `CCc1nc2ccc(C3CCN(CC(=O)N4CC(O)C4)CC3)cn2c1N(C)c1nc(-c2ccc(F)cc2)c(CO)s1` [Compound 156, 2-(4-(2-ethyl-3-((4-(4-fluorophenyl)-5-(hydroxymethyl)thiazol-2-yl)(methyl)amino)imidazo[1,2-a]pyridin-6-yl)piperidin-1-yl)-1-(3-hydroxyazetidin-1-yl)ethanone], greater than 1000 nM. Under `CCc1nc2ccc(C3CCN(S(C)(=O)=O)CC3)cn2c1N(C)c1nc(-c2ccc(F)cc2)c(C(=O)C(F)(F)F)s1` [Compound 160, 1-(2-((2-ethyl-6-(1-(methylsulfonyl)piperidin-4-yl)imidazo[1,2-a]pyridin-3-yl)(methyl)amino)-4-(4-fluorophenyl)thiazol-5-yl)-2,2,2-trifluoroethanone] stands 0.01 to 100 nM. With `CN(C)C(=O)CN1CCC(c2ccc3nc(CCC#N)c(N(C)c4nc(-c5ccc(F)cc5)cs4)n3c2)CC1` [Compound 174, 2-(4-(2-(2-cyanoethyl)-3-((4-(4-fluorophenyl)thiazol-2-yl)(methyl)amino)imidazo[1,2-a]pyridin-6-yl)piperidin-1-yl)-N,N-dimethylacetamide], the IC50 lay in the range of 0.01 to 100 nM. In the case of `CN(c1nc(-c2ccc(F)cc2)c(CO)s1)c1c(CCC#N)nc2ccc(C3CCN(S(C)(=O)=O)CC3)cn12` [Compound 175, 3-(3-((4-(4-fluorophenyl)-5-(hydroxymethyl)thiazol-2-yl)(methyl)amino)-6-(1-(methylsulfonyl)piperidin-4-yl)imidazo[1,2-a]pyridin-2-yl)propanenitrile], the IC50 fell in the range of 0.01 to 100 nM.
